Measured values published in patent US20230331676A1, “NAPHTHYLUREA COMPOUND, METHODS OF PREPARATION AND USE THEREOF” (Henan Radiomedical Science and Technology Co., Ltd., priority 2021, published 2023).

Legend:
Assay type in all cases: cell-based
HepG2 cells [1] = assay: Apoptosis by Annexin V-FITC/PI flow cytometry, HepG2; conditions: HepG2, 0, 2, 4, 8 μM, 48 h, vs control group
Description: (§1) The MDA-MB-468 or HepG2 cells were harvested during log phase, digested, centrifuged and prepared into a single cell suspension; the number of the cells in the cell suspension was counted; the cells were seeded into a 12-well plate, with 2×10^5 cells per well; three wells were used as a parallel control design; 16 hours after seeding, the cells were treated with the compounds.
(§2) With DMSO as a solvent, the final concentrations of the compounds IY210216D-1 and ID210203C-1 in HepG2 cell suspension were 0, 2, 4 and 8 μM, respectively, and the final concentrations of the compound IY210316B-1 in MDA-MB-468 cell suspension were 0 and 0.12 μM, respectively. […]

[2] = tested on: tumor cells such as breast cancer (MDA-MB-468) and liver cancer (HepG2); assay: MTT assay, inhibition of tumor cell proliferation; conditions: 48 h, compared with positive control WP1066, IC50 values only in FIG. 1
Description: Tumor cells in logarithmic growth phase were collected; the cell suspension was diluted to a density of 5×10^4 cells/mL; 100 uL of the cell suspension was transferred to each hole of a 96-well plate; DMSO was used as a solvent for negative control; (2E)-3-(6-bromo-2-pyridyl)-2-cyano-N-[(1S)-1-phenylethyl]-2-acrylamide (WP1066CAS: 857064-38-1, with a formula
was used as a positive control; the naphthylurea compounds IY210216D-1, ID210203C-1 and IY210316B-1 were diluted with DMSO and added into the 96-well plate to a final concentration of 0.1, 0.3, 1, 3, 10, 30, 100 and 300 μmol/L; the 96-well plate was incubated for 48 h; 10 μL of MTT solvent (5 mg/mL) was added into each well; the 96-well plate was incubated at 37° C. for 4 h; a culture supernatant was discarded; 150 μL of DMSO was added into each well; the 96-well plate was shaken for 10 min on a plate shaker; an optical density (OD) of the resulting product was measured at a wavelength of 490 nm by an ELISA reader. Test results were recorded. A cell growth curve was drawn with the dosage of each compound as abscissa and the absorbance value as ordinate. The statistical results of the half inhibition rate (IC50 value) of tumor cells by the compounds IY210216D-1, ID210203C-1 and IY210316B-1 were shown in FIG. 1.

HepG2 cells [3] = assay: Cell cycle distribution by flow cytometry (PI), HepG2; conditions: hepatoma cells (HepG2), 2, 4, 8 μM, 48 h, vs DMSO
Description: (§3) MDA-MB-468 or HepG2 cells were harvested during log phase, digested, centrifuged and prepared into a single cell suspension; the number of the cells in the single cell suspension was counted; the cells were seeded into a 12-well plate, with 2×10^5 cells per well; three wells were used as a parallel control design; 16 hours after seeding, the cells were treated with the compounds. With DMSO as a solvent, the final concentrations of the compounds IY210216D-1 and ID210203C-1 in HepG2 cell suspension were 0, 2, 4 and 8 μM, respectively, and the final concentrations of the compounds IY210216D-1 and ID210203C-1 in MDA-MB-468 cell suspension were 0 and 2 μM, respectively. 48 hours later, the cells were digested with trypsin and resuspended; the number of the cells in the cell suspension was counted and diluted to 5×10^5 cells/mL; after the digestion was completed, the cell suspension was centrifuged; the supernatant was discarded; the pellet was washed twice with PBS (each time the mixture was centrifuged 2000 rpm for 5 min); the supernatant was discarded; a fixative comprising 980 μL of 70% cold ethanol and 20 μL of 5% BSA (a small amount of BSA reduces cellular stress and damage) was added to each microcentrifuge tube, so that the cells were fixed overnight at 4° C.; the fixative is discarded; the cells were washed three times in PBS to remove residual fixative (each time the mixture was centrifuged at 1000 rpm for 3 min); a DNA quantification kit is used to measure the content of DNA according to the following instruction (Suo Laibao, Beijing): each sample was incubated in 100 μL of RNase A at 37° C. for 30 min; 500 μL of PI (propidium iodide) was added to each sample; each sample was incubated at room temperature for 30 min in the dark; the cell cycle was analyzed by a flow cytometry and a ModFit software; and Graphpad prism 6.0 was used to estimate the percentage of a cell population in the different phases of the cell cycle.

HepG2 liver cancer cells = assay: Q-PCR of mRNA level of cell cycle and metastasis related molecules; conditions: HepG2, 4 μM, 24 hours; for down-regulation of Cyclin B1 (CCNB1) mRNA level / down-regulation of Cyclin D1 (CCND1) mRNA level: relative to actin gene
Description: HepG2 liver cancer cells were seeded in a 6-well plate, with 1×10^6 cells per well, and treated with the compounds IY210216D-1 and ID210203C-1 (in 0 and 4 μM concentrations) for 24 h; total RNA was extracted from the HepG2 liver cancer cells by a single-step TRIzol method; the concentration and purity of the total RNA was measured; the total RNA was used as a template; and complementary DNA (cDNA) was synthesized from the RNA template according to the instruction of a reverse transcription kit (Promega); sqRT-PCR and qPCR were used to quantify the expression of the genes CCNB1, CDK1 and SQSTM; and the gene ACTB was used as an internal reference gene for gene expression normalization.
A20 μL reaction mix for qPCR contained: • 2 μL of cDNA; • 10 μL of 2×SYBR Green Supermix; • 1 μL of upstream and downstream primers; • 0.3 μL of reference dye; • 6.7 μL of water. • Each sample has three technical replicates. • Cycling conditions comprised: • pre-denaturation at 95° C. for 5 min; • denaturation at 95° C. for 15 sec; • annealing at 60° C. for 15 sec; and • extension at 72° C. for 30 sec.
After 40 cycles, the cycle […] (CT) value of the […] gene was used as an initial value in comparison with the amount of the amplified product.

MDA-MB-468 cells [4] = assay: Cell cycle distribution by flow cytometry (PI), MDA-MB-468; conditions: breast cancer cells (MDA-MB-468), 2 μM, 48 h, vs DMSO
Description: as §3

[5] = tested on: JAK2/STAT3 signal axis in MDA-MB-468 or HepG2 cells; assay: Western blot of JAK2/STAT3 signal axis protein expression; conditions: MDA-MB-468 (0, 0.5, 1 μM) or HepG2 (0-8 μM), 48 h, vs solvent control; dose-dependent
Description: MDA-Mb-468 or HepG2 cells in logarithmic growth phase were inoculated in a 6-well plate, with 8×10^5 cells per well. After cell adhesion, the compound ID210203C-1 was added until a final concentration thereof was 0, 0.5, 1 or 0, 0.5, 1, 2, 4 and 8 μM respectively. After about 48 hours, the cells were lysed with RIPA lysate and proteins were collected for Western blot analysis. The protein expressions were respectively detected through the anti-JAK2, p-JAK2, STAT3, p-STAT3, CyclinD1, p-AKT, p-ERK and β-actin antibodies.

MDA-MB-468 cells [6] = assay: Apoptosis by Annexin V-FITC/PI flow cytometry, MDA-MB-468
Description: as §1, §2

O=C(Nc1ccc(OCc2ccc(OCCN3CCCCC3)cc2)c2ccccc12)NC1CCOCC1 [IY210216D-1]
induction of apoptosis (HepG2 cells [1]): increased apoptosis in a dose-dependent manner
inhibitory effect on the proliferation of tumor cells [2]: good inhibitory effects
G1 phase ratio (HepG2 cells [3]): significant decrease
G2 phase ratio (HepG2 cells [3]): significant increase
expression of MMP9 at mRNA level (HepG2 liver cancer cells): down-regulating
down-regulation of Cyclin B1 (CCNB1) mRNA level (HepG2 liver cancer cells): ~10 folds
down-regulation of Cyclin D1 (CCND1) mRNA level (HepG2 liver cancer cells): ~10 folds
G1 phase ratio (MDA-MB-468 cells [4]): decrease
S phase ratio (MDA-MB-468 cells [4]): significant increase

O=C(NCc1ccncc1)Nc1ccc(OCc2ccc(OCCN3CCCCC3)cc2)c2ccccc12 [ID210203C-1]
induction of apoptosis (HepG2 cells [1]): increased apoptosis in a dose-dependent manner
inhibitory effect on the proliferation of tumor cells [2]: good inhibitory effects
G1 phase ratio (HepG2 cells [3]): significant decrease
G2 phase ratio (HepG2 cells [3]): significant increase
expression level of CyclinD1 [5]: significantly inhibit
expression level of p-JAK2 [5]: significantly inhibit
expression level of p-STAT3 [5]: significantly inhibit
expression of MMP9 at mRNA level (HepG2 liver cancer cells): down-regulating
down-regulation of Cyclin B1 (CCNB1) mRNA level (HepG2 liver cancer cells): ~10 folds
down-regulation of Cyclin D1 (CCND1) mRNA level (HepG2 liver cancer cells): ~10 folds
G1 phase ratio (MDA-MB-468 cells [4]): decrease
S phase ratio (MDA-MB-468 cells [4]): significant increase

O=C(NCc1ccccn1)Nc1ccc(OCc2ccc(OCCN3CCCCC3)cc2)c2ccccc12 [IY210316B-1, 1-(4-((4-(2-(piperidin-1-yl)ethoxy)benzyl)oxy)naphthalen-1-yl)-3-(pyridin-2-ylmethyl)urea]
inhibitory effect on the proliferation of tumor cells [2]: good inhibitory effects
apoptosis of breast cancer cells (MDA-MB-468 cells [6]; 0.12 μM, 48 hours): 43.86%
induction of apoptosis (MDA-MB-468 cells [6]; MDA-MB-468, 0 and 0.12 μM, 48 h, vs control group): increased apoptosis in a dose-dependent manner
